Data on one molecule can be found in US9717806B2, “Method for detecting cancer using ICG fluorescence method” (Osaka Prefectural Hospital Organization, priority 2008, dated 2017).

What all share (type): in vivo, human
Assay [1] relates to hepatocellular carcinoma. Nature of the assay: Intraoperative ICG fluorescence detection of accessory lesions with infrared camera system PDE, primary liver cancer. The settings on record: for confirmation of HCC areas by intraoperative PDE diagnosis: identification of main tumor by intraoperative ultrasonography was difficult. How it is done:
(§1) Now the method of detecting an accessory cancer lesion using the accessory cancer lesion detector illustrated in FIG. 1 is described. First, the fluorescent dye indocyanine green is injected intravenously. After the lapse of a certain time (typically 1 to 10 days from the intravenous injection), when excitation light 10 of a certain wavelength (760 nm for instance) is irradiated on the target organ 20 from the excitation light source unit 2, a fluorescence image 11 in the near-infrared wavelength band is emitted by the accessory cancer lesion because of the indocyanine green. Here, the optical filter 3 allows the passage of the fluorescence image 11 while cutting off the reflected light coming from the target organ 20 that is being irradiated by the excitation light 10.
The fluorescence image 11 that passes through the optical filter 3 is captured by the CCD camera used as the imager 4, and the data of the observed image is output from the CCD camera to the controller 5. The controller 5 controls the brightness and contrast of the observed image coming from the imager 4. As a result, the observed image 15 (which includes the image of the main cancer lesion) containing the accessory cancer lesion image 16 is generated. […] Furthermore, if necessary, the observed image 15 is recorded on a recording medium in the image recorder 7.
(§2) In the examples 1 to 5 given below, the ICG (0.5 mg/kg) was injected intravenously a few days before the surgery. In other words, in the examples 1, 2, 3, 4, and 5, the intravenous ICG injection was administered, respectively, 4, 4, 8, 1, and 4 days before the surgery. […] In examples 1 to 4, the cancer was primary liver cancer, and in Example 5 it was metastatic liver cancer.

In the next assay the test system is metastatic liver cancer. Briefly: Intraoperative ICG fluorescence detection of accessory lesions with infrared camera system PDE, metastatic liver cancer. The settings on record: Example 5, person; ICG 0.5 mg/kg intravenously 4 days before surgery; S4 segment of the liver; histology: adenocarcinoma, metastasis of colon cancer into the liver. The method, then: as §1
The fluorescence image 11 that passes through the optical filter 3 is captured by the CCD camera used as the imager 4, and the data of the observed image is output from the CCD camera to the controller 5. The controller 5 controls the brightness and contrast of the observed image coming from the imager 4. As a result, the observed image 15 (which includes the image of the main cancer lesion) containing the accessory cancer lesion image 16 is generated. […] Furthermore, if necessary, the observed image 15 is recorded on a recording medium in the image recorder 7. […]

Assay [2] concerns hepatocellular carcinoma. Nature of the assay: PDE observation of cross-sections of resected, formalin-fixed liver slices after ICG injection. Conditions: Example 4, ICG 0.5 mg/kg intravenously 1 day before surgery, 3 mm thick slices, areas diagnosed as highly differentiated HCC. How it is done: as §2
Example 4 was a case of a person. Preoperative contrast CT detected the presence of a single HCC, 25 mm in diameter, in the S5 segment of the liver. FIG. 6A is an image showing the result of contrast CT. The arrow indicates the HCC. […] FIG. 6B is a near-infrared fluorescence intensity distribution image (measured after the abdomen was opened but before the resection) from ICG in the liver. The fluorescent area indicated by the arrow at left is the main tumor area (main lesion), and the two arrows (arrowheads) on the right indicate fluorescent areas (accessory lesions), 3 mm in diameter, observed around the main tumor. Based on the above measurements, more than one fluorescent area (accessory lesions), each 3 mm in diameter, were resected in addition to the main tumor (main lesion). Further, the resected liver was fixed in formalin and made into 3 mm thick slices (FIG. 6C and FIG. 6G), and the cross-sections observed with the PDE (FIG. 6D and FIG. 6H). […]

As for `CC1(C)C(/C=C/C=C/C=C/C=C2\N(CCCCS(=O)(=O)O)c3ccc4ccccc4c3C2(C)C)=[N+](CCCCS(=O)(=O)[O-])c2ccc3ccccc3c21` [ICG, indocyanine green], in the assay with hepatocellular carcinoma [1] (Example 1, person, ICG 0.5 mg/kg intravenously 4 days before surgery, S4 segment of the liver, not detected by contrast CT, histology: highly differentiated HCC), the “diameter of fluorescent area (accessory lesion) detected in addition to the main tumor” value turned out to be 5 mm. For the same molecule, the “diameter of fluorescent area (accessory lesion)” value with hepatocellular carcinoma [1] (Example 3, person, ICG 0.5 mg/kg intravenously 8 days before surgery, S5 segment of the liver, histology: slightly less differentiated HCC than the main tumor) came to 5 mm. The “confirmation of HCC areas by intraoperative PDE diagnosis” value in the assay with hepatocellular carcinoma [1] (Example 3, ICG 0.5 mg/kg intravenously 8 days before surgery) is “could confirm the HCC areas (main and accessory lesions) as fluorescent areas”; with hepatocellular carcinoma [1] (Example 4, ICG 0.5 mg/kg intravenously 1 day before surgery), “could confirm the HCC areas (main and accessory lesions) as fluorescent areas”. Moreover, the “diameter of fluorescent areas (accessory lesions) observed around the main tumor” value in the assay with hepatocellular carcinoma [1] (Example 4, person, ICG 0.5 mg/kg intravenously 1 day before surgery, histology: highly differentiated HCC) amounted to 3 mm. In addition, the “diameter of fluorescent area (accessory lesion) detected apart from the two lesions identified before the surgery” value with metastatic liver cancer was determined as 5 mm. The “near-infrared fluorescence in cross-sections of resected liver” value with hepatocellular carcinoma [2] was “light emission from areas where no nodule was detected macroscopically”.
